Consider one compound from US8461389B2, “Psycho-pharmaceuticals” (University College Dublin, National University of Ireland, …, priority 2008, dated 2013).

The target in one test is T1, dopamine D3 receptor (Homo sapiens, UniProt P35462).
T1 construct: Novascreen (contract screen)
Nature of the test: Novascreen receptor affinity screen (competition with reference ligand), dopamine D3. It is filed as binding. The note with it: 1 μM Captodiamine competing with a reference ligand; read-out: percent target inhibition, dopamine D3 receptor. Here is the method: The Structure (FIG. 9A), receptor affinity (FIG. 9B), pharmacokinetics (FIG. 9C) and growth factor modulation (FIG. 9D) of Captodiamine are provided. Analysis of receptor affinities was performed by Novascreen™ and those displacing >20% of the natural ligand are indicated by the filled boxes. Blood levels of Captodiamine were determined by GC mass spectroscopy. In separate samples taken from a cannulated jugular at increasing time intervals following a single intraperitoneal injection of tha drug (5 mg/kg). Growth factor analysis was performed using tissue homogenates and ELISA assays specific for each growth factor (Promega). Values were analysed using a Student t-test and those with a p value<0.05 were accepted as significant and are indicated with an asterisk.
The higher the target inhibition value, the greater the affinity Captodiamine has for this particular receptor as it displaces a greater proportion of the reference ligand. This assay is an automated high throughput assay performed on cell lines that express only one type of receptor and was carried out by Novascreen (www.novascreen.com). Receptor affinity is a good starting point for determining the mechanism of action for a particular compound.

Test [1] concerns patients with depressive states. The conditions noted are these: Azoulay, Le Bezu and Leyritz 1956; cited from earlier work.

T1 sequence (P35462 whole entry, species assumed): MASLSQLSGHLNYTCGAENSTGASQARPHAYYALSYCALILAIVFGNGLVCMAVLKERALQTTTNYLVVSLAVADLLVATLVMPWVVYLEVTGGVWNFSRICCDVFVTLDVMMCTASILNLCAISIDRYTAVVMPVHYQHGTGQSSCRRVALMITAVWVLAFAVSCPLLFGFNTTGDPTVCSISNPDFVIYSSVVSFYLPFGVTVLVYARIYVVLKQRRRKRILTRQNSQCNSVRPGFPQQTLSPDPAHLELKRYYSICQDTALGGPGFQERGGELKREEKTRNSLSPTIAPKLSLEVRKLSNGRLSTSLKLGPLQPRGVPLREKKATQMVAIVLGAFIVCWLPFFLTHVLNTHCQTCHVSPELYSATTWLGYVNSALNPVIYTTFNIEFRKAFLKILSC

For the compound `CCCCSc1ccc(C(SCCN(C)C)c2ccccc2)cc1` (centres unmarked) [Captodiamine, 2-[(4-butylsulfanylphenyl)-phenyl-methyl]sulfanyl-N,N-dimethyl-ethanamin], on dopamine D3 receptor, the inhibition – broadly, the percentage by which the read-out fell short of the control – at 1 µM was above 80%. The “clinical usefulness in depressive states resistant to largactil” value in test [1] was “useful in only one patient”.
